Target: T1, human somatostatin receptor subtype 5 (Homo sapiens, UniProt P35346)
T1 construct: expressed in transfected cells
Assay: cAMP assay for SST5R (inhibition of cAMP in CHO-K1 cells)
Format: cell-based
Conditions: Table A; inhibition of cAMP via human SST5 receptor; read-out: SST5 potency
Description: General overview: All five SSTR subtypes are Gi coupled G-protein coupled receptors (GPCRs) that lead to decreases in intracellular cyclic AMP (cAMP) when activated by an agonist. Therefore, measurement of intracellular cAMP levels can be used to assess whether compounds of the invention are agonists of SSTR subtypes (John Kelly, Troy Stevens, W. Joseph Thompson, and Roland Seifert, Current Protocols in Pharmacology, 2005, 2.2.1-2.2). One example of an intracellular cAMP assay is described below.
cAMP Assay Protocol for SST5R:
Four days prior to the assay, 2,000 Chinese hamster ovary cells (CHO-K1, ATCC #CCL-61) stably expressing the human somatostatin receptor subtype 5 are plated in each well of a 96-well tissue culture-treated plate in Ham's F12 growth media (ThermoFisher #10-080-CM) supplemented with 10% donor bovine serum (Gemini Bio-Products #100-506), 100 U/mL penicillin; 100 µg/mL streptomycin; 2 mM L-glutamine (Gemini Bio-Products #400-110) and 0.25 mg/mL G418 Sulfate (GoldBio #108321-42-2). The cells are cultured at 37° C., 5% CO2 and 95% humidity. On the day of the assay, the media is aspirated and the cells are treated with 50 μL of 1.6 μM NKH477 (Sigma #N3290) plus various dilutions of compounds of the invention in assay buffer [1× Hank's Balanced Salt Solution (ThermoFisher #SH3058802), 0.5 mM HEPES pH 7.4, 0.1% bovine serum albumin, 0.2 mM 3-Isobutyl-1-methylxanthine (IBMX, VWR #200002-790)]. The cells are incubated for 20 minutes at 37° C. […] The cells are treated with 50 μL of lysis buffer (HRTF cAMP kit, Cisbio) for 30 minutes and then the lysate is diluted to 250 μL with assay buffer. The lysate is transferred to 384-well plates and cAMP detection and visualization antibodies are added and incubated for 1-24 hours at room temperature. The time-resolved fluorescent signal is read with a Tecan M1000Pro multiplate reader. The intracellular cAMP concentrations are calculated by regression to a standard curve and are plotted vs. the concentration of the compounds of the invention and the EC50 of the compounds are calculated using standard methods. All data manipulations are in GraphPad Prism v6 or v7.

T1 sequence (P35346 whole entry): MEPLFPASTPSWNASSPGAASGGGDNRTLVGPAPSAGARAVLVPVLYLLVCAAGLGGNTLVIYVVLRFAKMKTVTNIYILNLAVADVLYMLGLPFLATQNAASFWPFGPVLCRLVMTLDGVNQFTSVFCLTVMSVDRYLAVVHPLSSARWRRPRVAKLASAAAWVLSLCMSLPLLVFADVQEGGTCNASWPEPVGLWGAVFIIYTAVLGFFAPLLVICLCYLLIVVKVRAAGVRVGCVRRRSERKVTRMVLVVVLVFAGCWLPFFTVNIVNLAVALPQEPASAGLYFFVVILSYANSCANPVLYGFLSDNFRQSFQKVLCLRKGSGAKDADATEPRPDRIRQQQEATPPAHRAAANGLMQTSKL

Row | Compound | EC50 [nM]
1 | C[C@]1(N)CCN(c2c(C(=O)NCC3CC(F)(F)C3)cncc2-c2cc(F)cc(F)c2)C1 [1-50, 4-[(3S)-3-amino-3-methylpyrrolidin-1-yl]-N-[(3,3-difluorocyclobutyl)methyl]-5-(3,5-difluorophenyl)pyridine-3-carboxamide] | < 10
2 | Cc1cc(F)cc(-c2cncc(C(=O)NC3(C(F)(F)F)CCCC3)c2N2CC[C@](C)(N)C2)c1 [1-15, 4-[(3S)-3-amino-3-methylpyrrolidin-1-yl]-5-(3-fluoro-5-methylphenyl)-N-[1-(trifluoromethyl)cyclopentyl]pyridine-3-carboxamide] | < 10
3 | COc1ncc(C(=O)N2CCCC(F)(F)C2)c(N2CC[C@H](N)C2)c1-c1cc(F)cc(F)c1 [1-237, (3S)-1-[3-(3,5-difluorophenyl)-5-(3,3-difluoropiperidine-1-carbonyl)-2-methoxypyridin-4-yl]pyrrolidin-3-amine] | > 1000
4 | Cc1ncc(C(=O)N[C@@H](C)C2CC2)c(N2CC[C@](C)(N)C2)c1-c1cnn(C2CC2)c1 [1-156, 4-[(3S)-3-amino-3-methylpyrrolidin-1-yl]-5-(1-cyclopropyl-1H-pyrazol-4-yl)-N-[(1S)-1-cyclopropylethyl]-6-methylpyridine-3-carboxamide] | 10 to 100
5 | C[C@]1(N)CCN(c2c(C(=O)NC3CCC(F)(F)CC3)cnc(C3CC3)c2-c2cc(F)cc(F)c2)C1 [1-281, 4-[(3S)-3-amino-3-methylpyrrolidin-1-yl]-6-cyclopropyl-N-(4,4-difluorocyclohexyl)-5-(3,5-difluorophenyl)pyridine-3-carboxamide] | < 10
6 | C[C@@H](C1CC1)N(C)C(=O)c1cnc(C#N)c(-c2cc(F)cc(F)c2)c1N1CC[C@](C)(N)C1 [1-219, 4-[(3S)-3-amino-3-methylpyrrolidin-1-yl]-6-cyano-N-[(1S)-1-cyclopropylethyl]-5-(3,5-difluorophenyl)-N-methylpyridine-3-carboxamide] | < 10
7 | C[C@H](NC(=O)c1cnc(C#N)c(-c2cc(F)cc(F)c2)c1N1CC[C@](N)(CF)C1)C1CC1 (single isomer, unassigned) [1-221] | 10 to 100

Continued, values first:

Row | EC50 [nM] | Compound
8 | < 10 | Cc1cccc2[nH]c(-c3cncc(C(=O)N(C)CC(F)(F)F)c3N3CC[C@](C)(N)C3)nc12 [2-10, 4-[(3S)-3-amino-3-methylpyrrolidin-1-yl]-N-methyl-5-(4-methyl-1H-1,3-benzodiazol-2-yl)-N-(2,2,2-trifluoroethyl)pyridine-3-carboxamide]
9 | < 10 | Cc1cccc2[nH]c(-c3cncc(C(=O)NC4CCCC4)c3N3CC[C@](C)(N)C3)nc12 [2-4, 4-[(3S)-3-amino-3-methylpyrrolidin-1-yl]-N-cyclopentyl-5-(4-methyl-1H-1,3-benzodiazol-2-yl)pyridine-3-carboxamide]
10 | 100 to 1000 | Cc1cccc2[nH]c(-c3cncc(C(=O)NC4CCOC4)c3N3CC[C@](C)(N)C3)nc12 (stereo partly drawn) [2-5, 4-[(3S)-3-amino-3-methylpyrrolidin-1-yl]-5-(4-methyl-1H-1,3-benzodiazol-2-yl)-N-(oxolan-3-yl)pyridine-3-carboxamide]
11 | 10 to 100 | Cc1cccc2[nH]c(-c3cncc(C(=O)N4CCC5(CC5)C4)c3N3CC[C@](C)(N)C3)nc12 [2-39, (3S)-1-(3-{5-azaspiro[2.4]heptane-5-carbonyl}-5-(4-methyl-1H-1,3-benzodiazol-2-yl)pyridin-4-yl)-3-methylpyrrolidin-3-amine]
12 | 10 to 100 | Cc1cnc(C(=O)N[C@@H](C)C2CC2)c(N2CC[C@](C)(N)C2)c1-c1cc(F)cc(F)c1 [4-2, 3-[(3S)-3-amino-3-methylpyrrolidin-1-yl]-N-[(1S)-1-cyclopropylethyl]-4-(3,5-difluorophenyl)-5-methylpyridine-2-carboxamide]
13 | 10 to 100 | Cc1cccc2[nH]c(-c3cncc(C(=O)NC4CC4)c3N3CC[C@](C)(N)C3)nc12 [2-12, 4-[(3S)-3-amino-3-methylpyrrolidin-1-yl]-N-cyclopropyl-5-(4-methyl-1H-1,3-benzodiazol-2-yl)pyridine-3-carboxamide]
